According to the NIST ThermoML archive (doi:10.1016/j.tca.2009.06.015):

Columns and labels:
[1] = refractive index (Na D-line) (dimensionless); xn = mol fraction of the nth substance listed; details: 101 kPa, Liquid, Standard Abbe refractometry
[2] = xn = mol fraction of the nth substance listed; details: 101 kPa, Liquid; for viscosity: Capillary tube (Ostwald / Ubbelohde) method; for mass density: Vibrating tube method

CCCCC(C)O (centres undefined) [2-hexanol] + CC#N
Details | mass density, [2] [kg/m3] | refractive index, [1] | viscosity, [2] [mPa·s]
293.15 K, x2 = 0 | 814.08 | 1.4135 | 5.155
293.15 K, x2 = 0.0964 | 812.14 | 1.4103 | 3.491
293.15 K, x2 = 0.1813 | 810.22 | 1.4077 | 2.696
293.15 K, x2 = 0.2574 | 808.34 | 1.4051 | 2.128
293.15 K, x2 = 0.3436 | 806.07 | 1.4014 | 1.684
293.15 K, x2 = 0.4483 | 803.11 | 1.3972 | 1.276
293.15 K, x2 = 0.5398 | 800.33 | 1.3917 | 1.006
293.15 K, x2 = 0.6495 | 796.76 | 1.3837 | 0.7676
293.15 K, x2 = 0.758 | 792.88 | 1.3739 | 0.582
293.15 K, x2 = 0.8733 | 788.19 | 1.3621 | 0.4444
293.15 K, x2 = 0.9579 | 784.29 | 1.351 | 0.3758
298.15 K, x2 = 0 | 810.14 | 1.4116 | 4.1
298.15 K, x2 = 0.0964 | 808.14 | 1.4096 | 2.933
298.15 K, x2 = 0.1813 | 806.14 | 1.4078 | 2.284
298.15 K, x2 = 0.2574 | 804.19 | 1.4054 | 1.84
298.15 K, x2 = 0.3436 | 801.82 | 1.4022 | 1.475
298.15 K, x2 = 0.4483 | 798.72 | 1.3975 | 1.133
298.15 K, x2 = 0.5398 | 795.82 | 1.3924 | 0.9062
298.15 K, x2 = 0.6495 | 792.09 | 1.3837 | 0.6995
298.15 K, x2 = 0.758 | 788.02 | 1.373 | 0.5384
298.15 K, x2 = 0.8733 | 783.08 | 1.3595 | 0.4184
298.15 K, x2 = 0.9579 | 779.02 | 1.348 | 0.3583
303.15 K, x2 = 0 | 806.13 | 1.4093 | 3.41
303.15 K, x2 = 0.0964 | 804.04 | 1.4082 | 2.491
303.15 K, x2 = 0.1813 | 801.94 | 1.4064 | 1.967
303.15 K, x2 = 0.2574 | 799.91 | 1.4044 | 1.61
303.15 K, x2 = 0.3436 | 797.49 | 1.4021 | 1.301
303.15 K, x2 = 0.4483 | 794.38 | 1.3979 | 1.017
303.15 K, x2 = 0.5398 | 791.33 | 1.3925 | 0.8212
303.15 K, x2 = 0.6495 | 787.45 | 1.3839 | 0.6409
303.15 K, x2 = 0.758 | 783.07 | 1.374 | 0.5036
303.15 K, x2 = 0.8733 | 777.74 | 1.3596 | 0.3943
303.15 K, x2 = 0.9579 | 773.37 | 1.345 | 0.3411
308.15 K, x2 = 0 | 802.06 | 1.4077 | 2.819
308.15 K, x2 = 0.0964 | 799.97 | 1.4069 | 2.134
308.15 K, x2 = 0.1813 | 797.84 | 1.4061 | 1.708
308.15 K, x2 = 0.2574 | 795.74 | 1.4049 | 1.42
308.15 K, x2 = 0.3436 | 793.18 | 1.4026 | 1.155
308.15 K, x2 = 0.4483 | 789.88 | 1.3979 | 0.9154
308.15 K, x2 = 0.5398 | 786.73 | 1.3925 | 0.7511
308.15 K, x2 = 0.6495 | 782.83 | 1.3844 | 0.5933
308.15 K, x2 = 0.758 | 778.36 | 1.3745 | 0.4724
308.15 K, x2 = 0.8733 | 772.84 | 1.361 | 0.3759
308.15 K, x2 = 0.9579 | 768.23 | 1.3469 | 0.3263

CC#N [acetonitrile] + CC(C)O
Details | mass density, [2] [kg/m3] | refractive index, [1] | viscosity, [2] [mPa·s]
293.15 K, x1 = 0.0496 | 784.97 | 1.3757 | 1.972
293.15 K, x1 = 0.0906 | 784.72 | 1.3751 | 1.688
293.15 K, x1 = 0.1529 | 784.31 | 1.3737 | 1.368
293.15 K, x1 = 0.2022 | 783.9 | 1.3726 | 1.176
293.15 K, x1 = 0.2783 | 783.36 | 1.3705 | 0.9608
293.15 K, x1 = 0.3678 | 782.71 | 1.3677 | 0.7912
293.15 K, x1 = 0.4768 | 782.02 | 1.364 | 0.6502
293.15 K, x1 = 0.6132 | 781.53 | 1.359 | 0.51
293.15 K, x1 = 0.7714 | 781.13 | 1.3528 | 0.4156
293.15 K, x1 = 0.9207 | 781.26 | 1.3469 | 0.3716
293.15 K, x1 = 1 | 782.04 | 1.3436 | 0.3542
298.15 K, x1 = 0.0496 | 780.76 | 1.3733 | 1.691
298.15 K, x1 = 0.0906 | 780.3 | 1.3724 | 1.461
298.15 K, x1 = 0.1529 | 779.7 | 1.3713 | 1.207
298.15 K, x1 = 0.2022 | 779.7 | 1.3702 | 1.044
298.15 K, x1 = 0.2783 | 779.2 | 1.3687 | 0.8677
298.15 K, x1 = 0.3678 | 777.65 | 1.3667 | 0.7248
298.15 K, x1 = 0.4768 | 778.79 | 1.3635 | 0.6062
298.15 K, x1 = 0.6132 | 776.2 | 1.3591 | 0.4735
298.15 K, x1 = 0.7714 | 775.79 | 1.3528 | 0.384
298.15 K, x1 = 0.9207 | 775.95 | 1.3452 | 0.3499
298.15 K, x1 = 1 | 776.64 | 1.3411 | 0.3369
303.15 K, x1 = 0.0496 | 776.32 | 1.3715 | 1.474
303.15 K, x1 = 0.0906 | 775.84 | 1.3707 | 1.288
303.15 K, x1 = 0.1529 | 775.13 | 1.3694 | 1.069
303.15 K, x1 = 0.2022 | 774.54 | 1.3684 | 0.9367
303.15 K, x1 = 0.2783 | 773.97 | 1.3666 | 0.7975
303.15 K, x1 = 0.3678 | 772.88 | 1.3641 | 0.6615
303.15 K, x1 = 0.4768 | 771.84 | 1.3608 | 0.5492
303.15 K, x1 = 0.6132 | 771.13 | 1.3561 | 0.4429
303.15 K, x1 = 0.7714 | 770.52 | 1.35 | 0.3617
303.15 K, x1 = 0.9207 | 770.59 | 1.3433 | 0.3311
303.15 K, x1 = 1 | 771.21 | 1.339 | 0.3254
308.15 K, x1 = 0.0496 | 771.86 | 1.3694 | 1.296
308.15 K, x1 = 0.0906 | 771.31 | 1.3687 | 1.15
308.15 K, x1 = 0.1529 | 770.57 | 1.3679 | 0.9576
308.15 K, x1 = 0.2022 | 769.92 | 1.367 | 0.846
308.15 K, x1 = 0.2783 | 768.98 | 1.3657 | 0.7168
308.15 K, x1 = 0.3678 | 767.8 | 1.3637 | 0.6057
308.15 K, x1 = 0.4768 | 766.44 | 1.3605 | 0.5051
308.15 K, x1 = 0.6132 | 765.75 | 1.3557 | 0.4111
308.15 K, x1 = 0.7714 | 765.26 | 1.3491 | 0.3442
308.15 K, x1 = 0.9207 | 765.18 | 1.3417 | 0.3202
308.15 K, x1 = 1 | 765.75 | 1.3371 | 0.3082
